What was measured:
Type in all cases: in vivo
Scirpus juncoides = assay: Test Example 1: herbicidal activity, application before weed generation in submerged conditions (symbol B); conditions: application herbicide amount 320 g/ha
In short: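 Steps: alluvial soil flooded to 4 cm; weed seeds sown together; rice seedlings (2.5 leaf) transplanted; diluted emulsion applied to water surface the same day as sowing; plants grown at 25–30 °C in greenhouse; herbicidal effect rated on a 0–5 scale at 3 weeks.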

Alopecurus myosuroides [1] = assay: Test Example 4: herbicidal effect by soil treatment (symbol J); conditions: 320 g/ha
In short: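 Seeds were sown in sterilized diluvial soil, covered with about 1.5 cm of soil, and the soil surface was sprayed with a water-diluted emulsion of the compound at a predetermined rate. Plants grew in a greenhouse at 25° C. to 30° C.; effects were scored visually 3 weeks after application.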

rapeseed = assay: Test Example 5: effect on crop by foliage application, plastic box (symbol g); conditions: 320 g/ha, 3 weeks after application
In short: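 A greenhouse held between 25° C. and 30° C. was used to grow plants sown spot-wise, beneath ~1.5 cm of soil, in boxes of sterilized diluvial soil.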

soybean = assay: Test Example 4: effect on crop by soil treatment (symbol d); conditions: 320 g/ha
In short: (§1)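 Soil-treatment setup: crop and weed seeds were spot-sown into sterilized diluvial soil, then buried beneath approximately 1.5 cm of it, and the boxes were housed in a 25–30° C. greenhouse.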

beet = assay: Test Example 4: effect on crop by soil treatment (symbol f); conditions: 320 g/ha
In short: as §1

rice = assay: Test Example 4: effect on crop by soil treatment (symbol b); conditions: 320 g/ha
In short: as §1

[2] = system: directly sowed rice plant; assay: Test Example 3: effect on crop by foliage application, Wagner pot (symbol b); conditions: application herbicide amount 320 g/ha
In short: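 Alluvial soil in a 1/10000-are Wagner pot was flooded to a water depth of 0.1–0.5 cm. Echinochloa crus-galli var. crus-galli, Leptochloa chinensis, Cyperus difformis and rice were sown into it and grown in a greenhouse at 25–30 °C.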

[3] = system: Echinochloa crus-galli var. crus-galli; assay: Test Example 5: herbicidal effect by foliage application, plastic box (symbol H); conditions: 320 g/ha, 3 weeks after application
In short: (§2)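 Greenhouse foliar test: seedlings at 14 days, grown 25° C. to 30° C. in sterilized diluvial soil; compound applied as an aqueous dilution of an emulsion; response read 3 weeks after spraying.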

Galium spurium = assay: Test Example 5: herbicidal effect by foliage application, plastic box (symbol Q); conditions: 320 g/ha, 3 weeks after application
In short: as §2

Apera spica-venti = assay: Test Example 5: herbicidal effect by foliage application, plastic box (symbol L); conditions: 320 g/ha, 3 weeks after application
In short: as §2

Digitaria ciliaris = assay: Test Example 5: herbicidal effect by foliage application, plastic box (symbol F); conditions: 320 g/ha, 3 weeks after application
In short: as §2

Chenopodium album = assay: Test Example 5: herbicidal effect by foliage application, plastic box (symbol O); conditions: 320 g/ha, 3 weeks after application
In short: as §2

Leptochloa chinensis = assay: Test Example 3: herbicidal effect by foliage application, Wagner pot (symbol D); conditions: application herbicide amount 320 g/ha
In short: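 Seeds sown in alluvial soil kept under 0.1–0.5 cm water, greenhouse 25–30 °C; 14 d growth. Leaves treated by small sprayer with water-diluted emulsion at a predetermined rate. Effect graded by set scale, 3 weeks.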

Alopecurus myosuroides [4] = assay: Test Example 5: herbicidal effect by foliage application, plastic box (symbol J); conditions: 320 g/ha, 3 weeks after application
In short: as §2

Veronica persica = assay: Test Example 5: herbicidal effect by foliage application, plastic box (symbol R); conditions: 320 g/ha, 3 weeks after application
In short: as §2

CON=C(C)CC1CC(OC(=O)N2CCCC2)=C(c2c(C)cc(C)cc2C)C1=O (stereo not drawn) [1-150]
Herbicidal effect grade, B: Scirpus juncoides (Scirpus juncoides): 3 (Herbicidal ratio of 40% or higher and lower than 70%) | J: Alopecurus myosuroides, herbicidal effect grade (Alopecurus myosuroides [1]): 5 (Herbicidal ratio of 90% or more (almost completely withered)) | g: rapeseed, effect on crop (criteria 0-5) (rapeseed): 4 (Herbicidal ratio of 70% or higher and lower than 90%) | d: soybean, effect grade on crop (soybean): 0 (Herbicidal ratio of 5% or lower (almost no effect)) | f: beet, effect grade on crop (beet): 0 (Herbicidal ratio of 5% or lower (almost no effect)) | b: directly sowed rice plant, effect grade on crop (rice): 0 (Herbicidal ratio of 5% or lower (almost no effect)) | effect on crop b (directly sowed rice plant), grade 0-5 [2]: 5 (Herbicidal ratio of 90% or more (almost completely withered)) | H: Echinochloa crus-galli var. crus-galli, herbicidal effect (criteria 0-5) [3]: 5 (Herbicidal ratio of 90% or more (almost completely withered)) | Q: Galium spurium, herbicidal effect (criteria 0-5) (Galium spurium): 0 (Herbicidal ratio of 5% or lower (almost no effect)) | L: Apera spica-venti, herbicidal effect (criteria 0-5) (Apera spica-venti): 5 (Herbicidal ratio of 90% or more (almost completely withered)) | F: Digitaria ciliaris, herbicidal effect (criteria 0-5) (Digitaria ciliaris): 5 (Herbicidal ratio of 90% or more (almost completely withered)) | O: Chenopodium album, herbicidal effect (criteria 0-5) (Chenopodium album): 0 (Herbicidal ratio of 5% or lower (almost no effect)) | herbicidal effect on D (Leptochloa chinensis), grade 0-5 (Leptochloa chinensis): 4 (Herbicidal ratio of 70% or higher and lower than 90%) | J: Alopecurus myosuroides, herbicidal effect (criteria 0-5) (Alopecurus myosuroides [4]): 5 (Herbicidal ratio of 90% or more (almost completely withered)) | R: Veronica persica, herbicidal effect (criteria 0-5) (Veronica persica): 0 (Herbicidal ratio of 5% or lower (almost no effect))
